Key:
dog [1] = details: Chronic toxicity; beagle; Oral; Capsule; dose end: 52 week; group: systemic; systemic / hematology / mean corpuscular hemoglobin (mch) / mean corpuscular hemoglobin (mch) + systemic / hematology / mean corpuscular …
rabbit [2] = details: Prenatal developmental toxicity study; new zealand white; Oral; Gavage/Intubation; dose end: 19 GD; group: maternal; systemic / in life observation / body weight / body weight gain + systemic / in life observation / clinical signs / altered breathing rate…
dog [3] = details: Subchronic oral toxicity in nonrodent, beagle, Capsule, dose end: 13 week, group: systemic
rat [4] = details: Multigenerational reproductive toxicity study, sprague dawley, Oral, Feed, dose end: 2 generation; for LEL / NEL: systemic / organ weight / liver / relative to body weight
rat [5] = details: Prenatal developmental toxicity study, sprague dawley, Oral, Gavage/Intubation, dose end: 15 GD
rat [6] = details: Subchronic oral toxicity in rodents, fischer, Feed, dose end: 13 week, group: systemic
rat [7] = details: Combined chronic toxicity/carcinogenicity, fischer, Oral, Feed, dose end: 104 week, group: systemic
mouse = details: Carcinogenicity, cd1, Oral, Feed, dose end: 80 week, group: systemic
rabbit [8] = details: Sub-acute repeat dose toxicity, new zealand white, Oral, Gavage/Intubation, dose end: 5 day, group: systemic
rat [9] = details: Chronic toxicity; sprague dawley; Oral; Gavage/Intubation; dose end: 182 day; group: systemic; systemic / clinical chemistry / [other] / [other] + systemic / clinical chemistry / cholesterol / cholesterol + systemic / clinical …
dog [10] = details: Chronic toxicity, beagle, Oral, Gavage/Intubation, dose end: 272 day, group: systemic
rat [11] = details: Sub-acute repeat dose toxicity, sprague dawley, Oral, Gavage/Intubation, dose end: 15 day, group: systemic
rabbit [12] = details: Prenatal developmental toxicity study, Oral, Gavage/Intubation, dose end: 20 GD, group: maternal
dog [13] = details: Sub-acute repeat dose toxicity, beagle, Oral, Gavage/Intubation, dose end: 22 day, group: systemic
rat [14] = details: Fertility (Segment I), Oral, Gavage/Intubation, dose end: 1 generation
rabbit [15] = details: Prenatal developmental toxicity study, Oral, Gavage/Intubation, dose end: 20 GD, group: maternal; remark: listed apart in the source
rat [16] = details: Sub-acute repeat dose toxicity; Oral; Gavage/Intubation; dose end: 36 day; group: systemic; systemic / in life observation / body weight / body weight + systemic / in life observation / food consumption / food consumption
rat [17] = details: Sub-acute repeat dose toxicity, sprague dawley, Oral, Gavage/Intubation, dose end: 15 day, group: systemic; remark: listed apart in the source
rat [18] = details: Subchronic oral toxicity in rodents, sprague dawley, Gavage/Intubation, dose end: 93 day, group: systemic
dog [19] = details: Subchronic oral toxicity in nonrodent, beagle, Gavage/Intubation, dose end: 94 day, group: systemic
rat [20] = details: Prenatal developmental toxicity study, Oral, Gavage/Intubation, dose end: 18 GD
rat [21] = details: Sub-acute repeat dose toxicity; sprague dawley; Oral; Gavage/Intubation; dose end: 5 day; group: systemic; systemic / clinical chemistry / aspartate aminotransferase (ast/sgot) / aspartate aminotransferase (ast/sgot) + systemic / in life …
rat [22] = details: Prenatal developmental toxicity study, Oral, Gavage/Intubation, dose end: 21 GD
[23] = systemic / clinical chemistry / glucose / glucose + systemic / clinical chemistry / alanine aminotransferase (alt/sgpt) / alanine …
[24] = group: parental, systemic / in life observation / body weight / body weight gain + systemic / organ weight / liver / relative to body weight + systemic / …
[25] = group: developmental, developmental / developmental malformation / bone / full supernumerary
[26] = group: developmental, developmental / developmental malformation / bone / full supernumerary + developmental / developmental malformation / bone / incomplete …
[27] = group: maternal, systemic / organ weight / placenta / nos
[28] = group: maternal, systemic / organ weight / placenta / nos + systemic / in life observation / body weight / body weight + systemic / in life observation / …
[29] = systemic / clinical chemistry / cholesterol / cholesterol + systemic / hematology / hematocrit (hct) / hematocrit (hct) + systemic / …
[30] = systemic / hematology / hematocrit (hct) / hematocrit (hct)
[31] = systemic / clinical chemistry / protein / protein
[32] = systemic / in life observation / body weight / body weight + systemic / in life observation / clinical signs / altered breathing rate + …
[33] = systemic / clinical chemistry / alkaline phosphatase (alp/alk) / alkaline phosphatase (alp/alk) + systemic / in life observation / clinical …
[34] = systemic / clinical chemistry / [other] / [other] + systemic / clinical chemistry / cytochrome p450, nos / cytochrome p450, nos + systemic…
[35] = systemic / in life observation / body weight / body weight gain + systemic / in life observation / food consumption / food consumption + …
[36] = systemic / in life observation / mortality / mortality + systemic / in life observation / body weight / body weight gain + systemic / in …
[37] = group: maternal, reproductive / reproductive performance / estrous cycle / corpora lutea + reproductive / reproductive performance / implantations / …
[38] = group: parental, systemic / in life observation / body weight / body weight + systemic / in life observation / body weight / body weight gain + systemic / in…
[39] = systemic / in life observation / clinical signs / altered breathing rate + systemic / in life observation / clinical signs / convulsions + …
[40] = systemic / in life observation / body weight / body weight + systemic / in life observation / clinical signs / alopecia + systemic / in life…
[41] = systemic / in life observation / body weight / body weight gain + systemic / clinical chemistry / [other] / [other] + systemic / clinical …
[42] = systemic / organ weight / liver / absolute
[43] = systemic / organ weight / liver / absolute + systemic / clinical chemistry / [other] / [other] + systemic / clinical chemistry / alkaline …
[44] = group: developmental, systemic / in life observation / body weight / fetal weight
[45] = group: maternal, systemic / in life observation / body weight / body weight gain + systemic / in life observation / clinical signs / alopecia + systemic / in…
[46] = group: maternal, systemic / in life observation / body weight / body weight gain + systemic / in life observation / food consumption / food consumption + …

Clc1ccc(C2(Cn3cncn3)CC(Br)CO2)c(Cl)c1 (stereo unspecified) [Bromuconazole]
LEL (dog [1]): 25 mg/kg/day | LOAEL (dog [1]): 25 mg/kg/day | NEL (dog [1]): 2.5 mg/kg/day | NOAEL (dog [1]): 2.5 mg/kg/day | LEL (rabbit [2]): 50 mg/kg/day | LOAEL (rabbit [2]): 50 mg/kg/day | NEL (rabbit [2]): 12.5 mg/kg/day | NOAEL (rabbit [2]): 12.5 mg/kg/day | LOAEL (dog [3]; systemic / clinical chemistry / glucose / glucose): 25 mg/kg/day | NEL (dog [3]; [23]): 2.5 mg/kg/day | NOAEL (dog [3]; [23]): 2.5 mg/kg/day | LEL (dog [3]; systemic / clinical chemistry / glucose / glucose + systemic / organ weight / liver / relative to body weight): 25 mg/kg/day | LOAEL (rat [4]; group: offspring, systemic / in life observation / body weight / offspring (pup) weight gain): 141 mg/kg/day | NOAEL (rat [4]; group: offspring, systemic / in life observation / body weight / offspring (pup) weight gain + developmental / offspring survival late / viability index / …): 13.8 mg/kg/day | LEL (rat [4]; group: offspring): 1.6 mg/kg/day | NEL (rat [4]; group: offspring): < 1.6 mg/kg/day | LOAEL (rat [4]; [24]): 141 mg/kg/day | NOAEL (rat [4]; [24]): 13.8 mg/kg/day | LEL (rat [4]; group: parental): 1.3 mg/kg/day | NEL (rat [4]; group: parental): < 1.3 mg/kg/day | LEL (rat [5]; [25]): 70 mg/kg/day | LOAEL (rat [5]; [25]): 70 mg/kg/day | NEL (rat [5]; [26]): 10 mg/kg/day | NOAEL (rat [5]; [26]): 10 mg/kg/day | LEL (rat [5]; [27]): 70 mg/kg/day | LOAEL (rat [5]; [27]): 70 mg/kg/day | NEL (rat [5]; [28]): 10 mg/kg/day | NOAEL (rat [5]; [28]): 10 mg/kg/day | LOAEL (rat [6]; [29]): 68.1 mg/kg/day | NOAEL (rat [6]; [29]): 13.8 mg/kg/day | LEL (rat [6]; [30]): 2.72 mg/kg/day | NEL (rat [6]; [30]): < 2.72 mg/kg/day | LEL (rat [7]; [31]): 0.88 mg/kg/day | NEL (rat [7]; [31]): < 0.88 mg/kg/day | LOAEL (rat [7]; systemic / pathology microscopic / liver / vacuolization): 8.27 mg/kg/day | NOAEL (rat [7]; systemic / pathology microscopic / liver / vacuolization + systemic / in life observation / body weight / body weight + systemic / in life …): 1.09 mg/kg/day | LOAEL (mouse; systemic / in life observation / body weight / body weight gain): 113 mg/kg/day | NOAEL (mouse; systemic / in life observation / body weight / body weight gain + systemic / pathology microscopic / liver / adenoma + systemic / organ …): 10.8 mg/kg/day | NEL (mouse; systemic / organ weight / liver / absolute + systemic / organ weight / liver / relative to body weight + systemic / organ weight / adrenal …): 370 mg/kg/day

COc1ccc(OC(F)(F)F)cc1CN[C@H]1CCCN[C@H]1c1ccccc1
LOAEL (rabbit [8]; [32]): > 200 mg/kg/day | NEL (rabbit [8]; [32]): 20 mg/kg/day | NOAEL (rabbit [8]; [32]): ≥ 200 mg/kg/day | LEL (rabbit [8]; systemic / in life observation / body weight / body weight + systemic / in life observation / food consumption / food consumption): 100 mg/kg/day | LEL (rat [9]): 30 mg/kg/day | LOAEL (rat [9]): > 100 mg/kg/day | NEL (rat [9]): 5 mg/kg/day | NOAEL (rat [9]): ≥ 100 mg/kg/day | LOAEL (dog [10]; [33]): > 20 mg/kg/day | NOAEL (dog [10]; [33]): ≥ 20 mg/kg/day | LEL (dog [10]; systemic / in life observation / clinical signs / salivation): 6 mg/kg/day | LEL (rat [11]; [34]): 100 mg/kg/day | NEL (rat [11]; [34]): < 100 mg/kg/day | LOAEL (rat [11]; [35]): > 200 mg/kg/day | NOAEL (rat [11]; [35]): ≥ 200 mg/kg/day | LEL (rabbit [12]; systemic / in life observation / mortality / mortality): 15 mg/kg/day | LOAEL (rabbit [12]; [36]): > 50 mg/kg/day | NEL (rabbit [12]; [36]): 5 mg/kg/day | NOAEL (rabbit [12]; [36]): ≥ 50 mg/kg/day | LEL (dog [13]; systemic / clinical chemistry / alkaline phosphatase (alp/alk) / alkaline phosphatase (alp/alk)): 10 mg/kg/day | LOAEL (dog [13]; [33]): > 30 mg/kg/day | NOAEL (dog [13]; [33]): ≥ 30 mg/kg/day | LEL (rat [14]; [37]): 150 mg/kg/day | LOAEL (rat [14]; [37]): > 150 mg/kg/day | NEL (rat [14]; [37]): 50 mg/kg/day | NOAEL (rat [14]; [37]): ≥ 150 mg/kg/day | LOAEL (rat [14]; [38]): > 150 mg/kg/day | NEL (rat [14]; [38]): 5 mg/kg/day | NOAEL (rat [14]; [38]): ≥ 150 mg/kg/day | LEL (rat [14]; group: parental, systemic / in life observation / body weight / body weight gain + systemic / in life observation / clinical signs / alopecia + systemic / in…): 50 mg/kg/day | LOAEL (rabbit [15]; [39]): > 75 mg/kg/day | NEL (rabbit [15]; [39]): 25 mg/kg/day | NOAEL (rabbit [15]; [39]): ≥ 75 mg/kg/day | LEL (rabbit [15]; systemic / in life observation / food consumption / food consumption): 50 mg/kg/day | LEL (rat [16]): 50 mg/kg/day | LOAEL (rat [16]): > 50 mg/kg/day | NEL (rat [16]): 20 mg/kg/day | NOAEL (rat [16]): ≥ 50 mg/kg/day | LEL (rat [17]; [34]): 50 mg/kg/day | NEL (rat [17]; [34]): 10 mg/kg/day | LOAEL (rat [17]; [40]): > 400 mg/kg/day | NOAEL (rat [17]; [40]): ≥ 400 mg/kg/day | LEL (rat [18]; systemic / clinical chemistry / 5' nucleotidase / 5' nucleotidase + systemic / clinical chemistry / aspartate aminotransferase (ast/sgot) / …): 30 mg/kg/day | LOAEL (rat [18]; [41]): > 150 mg/kg/day | NOAEL (rat [18]; [41]): ≥ 150 mg/kg/day | LEL (dog [19]; [42]): 1 mg/kg/day | NEL (dog [19]; [42]): < 1 mg/kg/day | LOAEL (dog [19]; [43]): > 20 mg/kg/day | NOAEL (dog [19]; [43]): ≥ 20 mg/kg/day | LEL (rat [20]; [44]): 150 mg/kg/day | LOAEL (rat [20]; [44]): > 150 mg/kg/day | NOAEL (rat [20]; [44]): ≥ 150 mg/kg/day | LEL (rat [20]; [45]): 75 mg/kg/day | LOAEL (rat [20]; [45]): > 150 mg/kg/day | NEL (rat [20]; [45]): 15 mg/kg/day | NOAEL (rat [20]; [45]): ≥ 150 mg/kg/day | LEL (rat [21]): 400 mg/kg/day | LOAEL (rat [21]): > 1000 mg/kg/day | NEL (rat [21]): < 400 mg/kg/day | NOAEL (rat [21]): ≥ 1000 mg/kg/day | LEL (rat [22]; [44]): 100 mg/kg/day | LOAEL (rat [22]; [44]): > 100 mg/kg/day | NOAEL (rat [22]; [44]): ≥ 100 mg/kg/day | LEL (rat [22]; [46]): 30 mg/kg/day | LOAEL (rat [22]; [46]): > 100 mg/kg/day | NEL (rat [22]; [46]): 10 mg/kg/day | NOAEL (rat [22]; [46]): ≥ 100 mg/kg/day
